Several values for one entry are separate records, joined by “and”; a condition that tells them apart may be missing. Equal values may be shown once.
Target: Coagulation factor X (Homo sapiens, UniProt P00742)
Test: Inhibition Assay

Sequence of Coagulation factor X (P00742 41-179 limits assumed): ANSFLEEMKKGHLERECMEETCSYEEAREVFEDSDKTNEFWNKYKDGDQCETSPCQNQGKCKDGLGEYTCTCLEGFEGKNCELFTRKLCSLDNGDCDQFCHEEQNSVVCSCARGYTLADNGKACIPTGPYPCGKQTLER
Sequence of Coagulation factor X (P00742 235-488 limits assumed): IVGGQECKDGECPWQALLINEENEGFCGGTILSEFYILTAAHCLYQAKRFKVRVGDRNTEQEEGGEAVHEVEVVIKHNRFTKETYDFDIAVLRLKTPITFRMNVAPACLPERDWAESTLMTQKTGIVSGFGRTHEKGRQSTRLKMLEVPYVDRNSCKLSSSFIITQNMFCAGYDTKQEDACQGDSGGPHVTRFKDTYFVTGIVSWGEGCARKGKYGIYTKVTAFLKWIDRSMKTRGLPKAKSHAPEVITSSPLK

Row | IC50 | Compound
1 | 0.75 nM | NS(=O)(=O)c1ccccc1-c1ccc(NC(=O)[C@H]2CC(O)CN2C(=O)Nc2ccc(Cl)cc2)c(F)c1 (stereo partly drawn) [4-Substituted Pyrrolidine Ring, 14]
2 | 7 nM and 1.2 nM | CS(=O)(=O)c1ccccc1-c1ccc(NC(=O)[C@H]2CC(F)CN2C(=O)Nc2ccc(Cl)cc2)c(F)c1 (stereo partly drawn) [4-Substituted Pyrrolidine Ring, 17]
3 | 2.9 nM | CS(=O)(=O)c1ccccc1-c1ccc(NC(=O)[C@H]2CC(=O)CN2C(=O)Nc2ccc(Cl)cc2)c(F)c1 [4-Substituted Pyrrolidine Ring, 20]
4 | 5 nM | CS(=O)(=O)c1ccccc1-c1ccc(NC(=O)[C@H]2CC(F)(F)CN2C(=O)Nc2ccc(Cl)cc2)c(F)c1 [4-Substituted Pyrrolidine Ring, 21]
5 | 4.3 nM | CS(=O)(=O)c1ccccc1-c1ccc(NC(=O)[C@H]2CC(O)CN2C(=O)Nc2ccc(Cl)cn2)c(F)c1 (stereo partly drawn) [4-Substituted Pyrrolidine Ring, 34]
6 | 1 nM | COC1C[C@H](C(=O)Nc2ccc(-c3ccccc3S(C)(=O)=O)cc2F)N(C(=O)Nc2ccc(Cl)cn2)C1 (stereo partly drawn) [4-Substituted Pyrrolidine Ring, 35]
7 | 7.6 nM | CS(=O)(=O)c1ccccc1-c1ccc(NC(=O)[C@H]2CC(O)CN2C(=O)Nc2ccc(F)cc2)c(F)c1 (stereo partly drawn) [4-Substituted Pyrrolidine Ring, 36]
8 | 33 nM | NS(=O)(=O)c1ccccc1-c1ccc(NC(=O)C2CCCN2C(=O)Nc2ccc(Br)cc2)c(F)c1 (stereo not drawn) [P1 Phenyl Ring, 22]
9 | 389 nM | Cc1ccc(NC(=O)N2CCCC2C(=O)Nc2ccc(-c3ccccc3S(N)(=O)=O)cc2F)cc1 (stereo not drawn) [P1 Phenyl Ring, 24]
10 | 516 nM | Cc1ccc(NC(=O)N2CCCC2C(=O)Nc2ccc(-c3ccccc3S(N)(=O)=O)cc2F)cc1F (stereo not drawn) [P1 Phenyl Ring, 25]
11 | 873 nM | COc1ccc(NC(=O)N2CCCC2C(=O)Nc2ccc(-c3ccccc3S(N)(=O)=O)cc2F)cc1 (stereo not drawn) [P1 Phenyl Ring, 26]
12 | 951 nM | NS(=O)(=O)c1ccccc1-c1ccc(NC(=O)C2CCCN2C(=O)Nc2ccccc2)c(F)c1 (stereo not drawn) [P1 Phenyl Ring, 27]
13 | > 4000 nM | NS(=O)(=O)c1ccccc1-c1ccc(NC(=O)C2CCCN2C(=O)Nc2cccc(Cl)c2)c(F)c1 (stereo not drawn) [P1 Phenyl Ring, 28]
14 | > 4000 nM | NS(=O)(=O)c1ccccc1-c1ccc(NC(=O)C2CCCN2C(=O)Nc2ccc(Cl)c(Cl)c2)c(F)c1 (stereo not drawn) [P1 Phenyl Ring, 29]
15 | > 4000 nM | CCc1ccc(NC(=O)N2CCCC2C(=O)Nc2ccc(-c3ccccc3S(N)(=O)=O)cc2F)cc1 (stereo not drawn) [P1 Phenyl Ring, 30]
16 | > 4000 nM | NS(=O)(=O)c1ccccc1-c1ccc(NC(=O)C2CCCN2C(=O)Nc2ccc(C(F)(F)F)cc2)c(F)c1 (stereo not drawn) [P1 Phenyl Ring, 31]
17 | > 4000 nM | COc1cccc(NC(=O)N2CCCC2C(=O)Nc2ccc(-c3ccccc3S(N)(=O)=O)cc2F)c1 (stereo not drawn) [P1 Phenyl Ring, 32]
18 | > 4000 nM | NS(=O)(=O)c1ccccc1-c1ccc(NC(=O)C2CCCN2C(=O)Nc2ccccc2F)c(F)c1 (stereo not drawn) [P1 Phenyl Ring, 33]

From BindingDB's records for doi:10.1111/j.1747-0285.2007.00520.x (Pfizer, 2007)
